Reference: patent US20070110833A1, “Composition comprising the alcohol compound isolated from the extract of cucurbitaceae family plant having anti-adipogenic and anti-obesity activity” (priority 2003, published 2007)

Test system: 3T3-L1 cell
Experiment: Inhibition of adipocyte (3T3-L1) differentiation and triglyceride accumulation, Oil Red O staining
Type: cell-based
Description: Adipocyte cell (3T3-L1) purchased from ATCC (American Tissue Culture Collection, USA) was cultured in RPMI medium containing 10% FBS and MDI cocktail (isobutylmethylxanthine, dexamethasone, insulin) was added thereto for differentiating into mature adipocytes cell. After two days, the medium was replaced and treated with only insulin. Thereafter, the medium was replaced and equal concentration of insulin was treated again every other day. MDI ranging from 2.5 to 1000 ug/ml of the concentration was treated when the adipocytes differentiation was induced and equal concentration of the MDI was treated at every replacement of the medium.
After eight days lapsed, the accumulated fat within differentiated cell was stained with Oil Red O staining reagent and the absorbance was determined with optical density qualitatively. The inhibition percentage (%) was calculated by following Empirical formula 1. The Inhibition Percentage (%)=[O.D. of test group]/[O.D. value of Control group]×100 [Empirical Formula 1]

## C[S+]([O-])c1ccc(-c2nc(-c3ccncc3)c(-c3ccc(F)cc3)[nH]2)cc1 (centres unmarked) [SB203580]
Experimental Example 1-3, cmc-9 and controls, FIG. 5
  adipocyte differentiation and triglyceride accumulation: the triglyceride was not formed
MDI-induced differentiation, 8 days, extracts 1 mg/ml, SB203580 10 uM, FIGS. 1 and 2
  level of produced triglycerides in differentiated 3T3-L1 cells (Oil Red O): the triglyceride was not produced
